Holding throughout (format): in vivo, mouse
Assay [1] concerns epididymal white fat depots and liver. Nature of the assay: H/E staining of fat depots and liver. Conditions: mice fed the HFD. The text has this: This discrepancy may be related to the abnormally low respiratory exchange ratio (˜0.76) in the control mice fed with HFD (FIG. 7D), which indicates an increased proportion of lipid oxidation in the control mice. […] In addition, miR-133 ASO treatment also led to much improved glucose tolerance in both diet groups (FIGS. 6E & 7F).

The subject of a further assay is miR-133a and miR-133b. Nature of the assay: RT-qPCR of miR-133 expression after intramuscular ASO injection. An excerpt:
To investigate miR-133 function in brown adipose determination of satellite cells in vivo, Applicant synthesized miR-133 antagomiR (miR-133 antisense oligonucleotide (ASO)) with an antisense sequence to both miR-133a and miR-133b, as well as a control “antagomiR” (control ASO) with the same chemical modifications and not antisense to any mouse gene or EST sequence (see Experimental Procedures). Applicant performed lineage tracing to distinguish effects of miR-133 ASO on satellite cells versus other cell types. Six week old Pax7-CreER; R26R-tdTomato mice were treated with tamoxifin as before (5 consecutive daily injections), then aged to 10 weeks of age prior to initiating the experiment. Control ASO versus miR-133 ASO were injected into tibialis anterior (TA) muscles 3 days following saline injection (quiescent state) or cardiotoxin injection (to induce activation). After one month, RT-qPCR was performed using RNA isolated from several tissues to evaluate the efficacy and scope of miR-133 ASO administration.
To induce brown adipocytes in vivo, 10 mg/mL Cardiotoxin solution (50 μl) was intramuscularly injected into TA muscles of 10-week old Pax7-CreER/R26R-tdTomato mice (FIG. 4) or C57BL/6 mice (FIG. 5 and FIG. 6). Alternatively, frozen injury was performed by applying liquid nitrogen cooled tweezers tips directly onto the anterior sides of TA muscles. After 3 days, 20 μg of miR-133 antagomiR or control antagomiR in saline (50 μl) was intramuscularly injected into the same injured TA muscles (on right hindlimbs). To test efficacy of miR-133 ASO in intact muscles, saline, instead of Cardiotoxin, was injected to TA muscles before miR-133 ASO administration (FIGS. 4A, 4B). miR-133 antagomiR and scramble antagomiR were designed as previously described (Krutzfeldt et al., 2005).
Total RNA was extracted from cells by TRIzol or Arcturus® PicoPure® RNA Isolation Kit (Applied Biosystems) following manufactures' recommendations. […]

The test system of a further assay is TA muscles. Nature of the assay: High-resolution respirometry on TA muscles after ASO treatment. The text has this:
To quantify bioenergetic effects of miR-133 ASO induced BAT in muscle, Applicant performed high-resolution respirometry on TA muscles after 2 months of either control- or miR-133 ASO treatment (C57BL/6 male fed on RD, n=6 in each treatment group). […] This marked difference in the response to FA is consistent with reported acute activation of mitochondrial respiration rates in brown adipocytes exposed to fatty acids (Matthias et al., 2000).
Surgically extracted tibialis anterior (TA) and contralateral soleus (SOL) muscles were immediately placed in ice-cold biopsy preservation solution (BIOPS) containing […], 7.23 mM K2EGTA buffer, 0.1 μM free calcium, 20 mM imidazole, 20 mM taurine, 50 mM 2-(N-Morpholino)ethanesulfonic acid hydrate (K-MES), 0.5 mM dithiothreitol (DTT), 6.56 mM […], 5.77 mM ATP, and 15 mM phosphocreatine (pH 7.1). The TA muscle was cut longitudinally into 4 equal parts, 2 of which were assessed by respirometry as intact cells and 2 after chemical permeabilization of the sarcolemma. The SOL muscle was cut in half longitudinally and both sections were permeabilized before respirometry. Prior to permeabilization muscle samples were gently dissected with two pairs of sharp forceps, achieving a high degree of fibre separation verified microscopically. Chemical permeabilization was achieved by incubation of the fibres with saponin (50 μg/mL) in 2 mL of BIOPS for 30 minutes at 4° C. (Gnaiger, 2009b). Permeabilized samples were then rinsed with a mitochondrial respiration medium (MiR05) containing 0.5 mM EGTA, 3 mM MgCl2.6H2O, 60 mM K-lactobionate, 20 mM taurine, 10 mM KH2PO4, 20 mM HEPES, 110 mM sucrose, and 1 g/L bovine serum albumin (pH 7.1).
Muscle bundles (both intact TA, and permeabilized TA and SOL) were blotted and measured for wet weight in a balance controlled for constant relative humidity, providing hydration consistency and stability of weight measurements. Each sample was then placed into a single chamber of the high-resolution Oroboros Oxygraph-2k (Oroboros, Innsbruck, Austria) containing MiR05 solution and measured at 37° C. The Oxygraph is a two-chamber titration-injection respirometer with an oxygen detection limit of up to 0.5 pmol·sec^−1·mL^−1. Standardized instrumental calibrations were performed to correct for back-diffusion of oxygen into the chamber from the various components, leak from the exterior, and sensor oxygen consumption. Oxygen flux was resolved by software allowing nonlinear changes in the negative time derivative of the oxygen concentration signal (Oxygraph 2k, Oroboros, Innsbruck, Austria).
Leak respiration was induced with the addition of malate (2 mM) and octanoyl carnitine (0.2 mM). This state represents the oxygen consumption of an unaltered and intact electron transport system (ETS) without the exogenous provision of adenylates. In the LN state, the chemiosmotic gradient is at maximum and oxygen flux represents proton leak, slip, and cation cycling in muscle (Pesta and Gnaiger, 2011) and maximal respiration in BAT induced by fatty acids (Matthias et al. 2000). Further uncoupling of the ETS in muscle cells was assessed with the proton ionophore, carbonyl cyanide p-(trifluoromethoxy) phenylhydrazone (FCCP; 0.7 μM per titration up to concentrations ranging from 2.5-4 μM) to achieve a maximal uncoupling response.
Leak respiration in the absence of adenylates (LN) was induced with the addition of malate (2 mM) and octanoyl carnitine (0.2 mM). Lipid oxidative phosphorylation capacity (PETF) and maximal electron flow through electron transferring-flavoprotein (ETF) was determined following the addition of ADP (5 mM). […]

For another assay, the system named is Fndc5. In words: qRT-PCR of Fndc5 in ASO treated muscles. Conditions: both RD and HFD conditions. As to the method: Normalized UCP1 levels were calculated based on the densitometry analysis of the UCP1 immunoblot and the α-Tubulin immunoblot. The interscapular brown adipose tissue (iBAT) were included as a control. Asterisk denotes the loading of the iBAT lanes on the UCP1 immunoblot was 1/100 of other lanes to avoid overloading. (B) Immunohistochemistry (IHC) of UCP1 protein reveal miR-133 antagonism induced beige adipocytes within inguinal and epididymal white adipose tissues. […] Error bars: S.E.M., asterisk: significant pair-wise comparison by t-test, *: p≦0.05, **: p≦0.01, ***: p≦0.001.
Total RNA was extracted from cells by TRIzol or Arcturus® PicoPure® RNA Isolation Kit (Applied Biosystems) following manufactures' recommendations. For RT-qPCR of mRNAs, total RNAs were reverse transcribed into cDNAs by SuperScript III (Invitrogen) and a mixture of oligodT18-20 primers and random hexamers. microRNA RT-qPCRs were performed as previously described (Shi and Chiang, 2005).
For orientation: Quantitative PCR measures a nucleic acid by following its amplification.

As to “*mA*mUmAmGmCmUmGmGmUmUmGmAmAmGmGmGmGmAmC*mC*mA*mA*mAChl [miR-133 ASO]”, in assay [1], the “infiltrating inflammatory cells in the epididymal white fat depots” value is given as “reduced numbers” and the “steatosis of the liver” value is reported as “reduced steatosis”. Besides, in the assay on miR-133a and miR-133b (ASO injected into resting muscles), the “miR-133a/b expression in the contralateral TA muscles” value is given as “repressed”. For the same substance, the “miR-133 expression in the myocardium” value in the assay on miR-133a and miR-133b (intramuscular administration) was “unaffected”. Further, in the assay on miR-133a and miR-133b (intramuscular, one month after injection, resting or regenerating muscle), the “miR-133a and miR-133b expression within the injected TA muscles” value is “striking reduction”. In addition, the “additional energy expenditure in the treated TA muscle from uncoupling respiration” value in the assay on TA muscles (by calculation) is 0.3 cal/h/mg. Moreover, the “higher respiration rate versus control” value in the assay with TA muscles (intact TA muscle with FA) was 1.75 fold. In addition, in the assay on TA muscles (intact TA muscle, 2 months after treatment, C57BL/6 male on RD, n=6), the “mitochondrial respiration rate after titration of FA (octanoyl carnitine), uncoupled/intact cells” value is 13.5±1 pmol·sec^−1·lo^−1. In the assay with TA muscles (permeabilized TA muscle), the “respiration rate in response to ADP (state-3 respiration mediated by ETF)” value is “unchanged”. The “state 3 respiration rates with complex I+II substrates (P I+II) versus control” value in the assay on TA muscles (permeabilized TA muscle, addition of succinate) is reported as “no difference”. Besides, the “electron transport through complex I (NADH dehydrogenase) respiration rate” value in the assay on TA muscles (permeabilized TA muscle, after titration of glutamate, p=0.2 versus control) was found to be 33±3 pmol·sec^−1lo^−1. Further, the “expression of Fndc5 compared to control muscles” value with Fndc5 is given as “increased”.
